PMC8113459, “Selective inhibition of cullin 3 neddylation through covalent targeting DCN1 protects mice from acetaminophen-induced liver toxicity” (Nature Communications, 2021)
Where “and” joins values, the source holds several entries; their conditions need not be identical. Equal values may be shown once.

What was measured:
[1] = tested on: MDA-MB-231 cells; experiment: Cell viability assay (WST-8), MDA-MB-231; type: cell-based, human; conditions: for cell viability relative to control: replicates
Procedure: (§1) Cell viability assay was performed as previously described. The effect of DCN1 inhibitors on cell growth was evaluated by a WST-8 [2-(2-methoxy-4-nitrophenyl)-3-(4-nitrophenyl)-5-(2,4-disulfophenyl)-2H-tetrazolium, monosodium salt assay (Dojindo Molecular Technologies, Inc). Cells (2000–3000 cells in each well) were seeded in 96-well tissue culture plates in medium (100 μL) and treated with serial dilution of DCN1 inhibitors for 3 days. At the end of incubation, WST-8 dye (20 μL) was added to each well and incubated for 1–3 h, then the absorbance was measured in a microplate reader (Molecular Devices) at 450 nm. Cell growth inhibition was evaluated as the ratio of the absorbance of the sample to that of the control. The values were inserted into Prism software, and the curves and the EC50 values were produced by Prism software.

[2] = Cell viability assay (WST-8), MDA-MB-231; type: cell-based, human; conditions: human, MDA-MB-231 cells, replicates, read-out: cell viability relative to control
Procedure: as §1

[3] = target: T1, DCN1 (Homo sapiens, UniProt Q96GG9); experiment: Intact-protein mass spectrometric analysis, Method B (DCN1); type: binding; conditions: 3 h incubation, 100 nM protein
Procedure: Method B: Recombinant DCN1 or DCN3 protein (100 nM in 25 mM Tris 7.5, 200 mM NaCl, 1 mM DTT buffer) was incubated with 1.2-fold excess of the DCN1 inhibitors at 37 °C for 10 min, 1 h, or 3 h. Following incubation, the protein was analyzed by LC–MS (Agilent Q-TOF 6545) under the following conditions: fragmentor voltage, 300 V; skimmer voltage, 75 V; nozzle voltage, 100 V; sheath gas temperature, 350 °C; and drying gas temperature, 325 °C. MassHunter Qualitative Analysis software (Agilent) was used to analyze the data. Intact protein masses were obtained using the maximum entropy deconvolution algorithm. The mass spectrometry data in Supplementary Figs. 14–17 were generated by Method B.

[4] = tested on: neddylation of cullin 3; experiment: Western blot, cullin 3 neddylation in cells of different tissue types (U2OS, THLE2, MDA-MB-231, KYSE70, HCT116); type: cell-based, human
Procedure: (§2) Western blotting was performed as described previously. Treated cells were lysed by RIPA buffer supplemented with protease inhibitor. The expression level of indicated proteins was examined by immunoblotting analysis and GAPDH was used as the loading control. Antibodies were purchased commercially: cullin 1 (sc-17775, 1:500 dilution) and cullin 2 (sc-166506, 1:500 dilution) from Santa Cruz Biotech (Santa Cruz, CA); cullin 4A (PA5-14542, 1:1000 dilution), cullin 4B (PA5-50647, 1:1000 dilution), and DCN3 (DCUN1D3, PA5-44000, 1:1000 dilution) from Thermo Fisher Scientific (Wayne, MI); cullin 3 (2759, 1:1000), NRF2 (12721, 1:1000 dilution), HO-1 (70081, 1:1000 dilution), and Bim (2819, 1:1000 dilution) from Cell Signaling Technology (Boston, MA); DCN1 (GWB-E3D700, 1:1000 dilution) from GenWay Biotech (San Diego, CA); and cullin 5 (A302-173A, 1:500 dilution) from Bethyl Labs (Montgomery, TX). Results are representative of two independent experiments.

[5] = tested on: NRF2 protein; experiment: Western blot, NRF2 protein accumulation in cells; type: cell-based, human; conditions: 300 nM
Procedure: as §2

[6] = target: T1, DCN1; experiment: Competitive FP binding assay
Procedure: Competitive FP binding assay was performed as previously described. The IC50 and Ki values of DI-1548 and DI-1548DD were determined in competitive binding experiments. Mixtures of preincubated protein/probe complex solution in the assay buffer (196 μL) and compounds in DMSO (4 μL) were added into assay plates which were incubated at room temperature for 30 min with gentle shaking. The concentrations of DCN1 protein and fluorescent probe were 50 and 5 nM, respectively. […] FP values in millipolarization units were measured using the Infinite M-1000 plate reader (Tecan U.S., Research Triangle Park, NC) in Microfluor 1 96-well, black, round-bottom plates (Thermo Fisher Scientific, Waltham, MA) at an excitation wavelength of 485 nm and an emission wavelength of 530 nm. IC50 values were determined by nonlinear regression fitting of the competition curves using the dose–response inhibition equation (four parameters, variable slopes) included in the Prism/GraphPad software. Ki values were calculated using methods described previously.

[7] = Cell viability assay (WST-8), U2OS; type: cell-based, human; conditions: human, U2OS cells, replicates, read-out: cell viability relative to control
Procedure: as §1

[8] = tested on: U2OS cells; experiment: Cell viability assay (WST-8), U2OS; type: cell-based, human; conditions: replicates
Procedure: as §1

[9] = Cell viability assay (WST-8), KYSE70; type: cell-based, human; conditions: human, KYSE70 cells, replicates, read-out: cell viability relative to control
Procedure: as §1

[10] = tested on: KYSE70 cells; experiment: Cell viability assay (WST-8), KYSE70; type: cell-based, human; conditions: for cell viability relative to control: replicates
Procedure: as §1

[11] = Cell viability assay (WST-8), HCT116; type: cell-based, human; conditions: human, HCT116 cells, replicates, read-out: cell viability relative to control
Procedure: as §1

[12] = tested on: HCT116 cells; experiment: Cell viability assay (WST-8), HCT116; type: cell-based, human; conditions: for cell viability relative to control: replicates
Procedure: as §1

T1 sequence (Q96GG9 whole entry, the tested form may be a part): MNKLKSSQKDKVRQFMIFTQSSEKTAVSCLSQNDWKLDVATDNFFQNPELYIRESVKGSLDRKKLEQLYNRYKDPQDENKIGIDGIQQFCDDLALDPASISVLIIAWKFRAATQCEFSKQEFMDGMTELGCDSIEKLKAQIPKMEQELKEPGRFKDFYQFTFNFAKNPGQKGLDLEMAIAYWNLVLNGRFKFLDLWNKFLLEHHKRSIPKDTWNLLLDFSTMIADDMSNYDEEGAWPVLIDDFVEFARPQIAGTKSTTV

C=C(CN1CCOCC1)C(=O)NC[C@H](NC(=O)[C@@H](Cc1nc2ccc(C(C)C)cc2s1)NC(=O)CC)C1CCCCC1 [DI-1548DD]
EC50 ([1]; Homo sapiens, MDA-MB-231, 72 h, cell line assigned from panel order, read-out: EC50, cell growth inhibition): > 1 µM | cell viability relative to control ([1]; conc 10, 72 h): 111.264 and 113.448 | cell viability relative to control ([1]; conc 30, 72 h): 102.295 and 109.77 | cell viability relative to control ([1]; conc 100, 72 h): 112.459 and 97.8161 | cell viability relative to control ([1]; conc 300, 72 h): 97.7869 and 103.793 | cell viability relative to control ([1]; conc 1000, 72 h): 105.329 and 127.049 and 101.954 | viability at 72 h ([2]; conc 10, 72 h): 93.6% | viability at 72 h ([2]; conc 30, 72 h): 108% | viability at 72 h ([2]; conc 100, 72 h): 104% | viability at 72 h ([2]; conc 300, 72 h): 104% | covalent complex formation with DCN1 [3]: fails to form any detectable complex | times less potent than DI-1548 and DI-1859, respectively, on cullin 3 neddylation [4]: > 300 times | effect on the neddylation of cullin 3 ([4]; 100–300 nM): no significant effect | accumulation of NRF2 protein [5]: no obvious accumulation | times less potent than DI-1548 in binding to DCN1 [6]: > 1000 times | FP signal of the competitive binding curve ([6]; Concentration (nM) 0.169351, duplicates): 48.4 and 48 | FP signal of the competitive binding curve ([6]; Concentration (nM) 0.508053, duplicates): 47 and 44.7 | FP signal of the competitive binding curve ([6]; Concentration (nM) 1.52416, duplicates): 42.8 and 45.5 | FP signal of the competitive binding curve ([6]; Concentration (nM) 4.57247, duplicates): 46.4 and 45.6 | FP signal of the competitive binding curve ([6]; Concentration (nM) 13.7174, duplicates): 45.7 | FP signal of the competitive binding curve ([6]; Concentration (nM) 41.1523, duplicates): 43.9 and 44.9 | FP signal of the competitive binding curve ([6]; Concentration (nM) 123.457, duplicates): 43.5 and 44.2 | FP signal of the competitive binding curve ([6]; Concentration (nM) 370.37, duplicates): 42.9 and 41.1 | FP signal of the competitive binding curve ([6]; Concentration (nM) 1111.11, duplicates): 36.2 and 35.7 | FP signal of the competitive binding curve ([6]; Concentration (nM) 3333.33, duplicates): 28.3 and 29.7 | FP signal of the competitive binding curve ([6]; Concentration (nM) 10000, duplicates): 20.5 and 22.6 | IC50 ([6]; DCN1 50 nM, probe 5 nM, 30 min): 2.88 µM | viability at 72 h ([7]; conc 10, 72 h): 90.3% | viability at 72 h ([7]; conc 1000, 72 h): 87.9% | cell viability relative to control ([8]; conc 10, 72 h): 109.342 and 93.2895 and 98.1579 | cell viability relative to control ([8]; conc 30, 72 h): 118.158 and 95.5263 and 92.6316 | cell viability relative to control ([8]; conc 100, 72 h): 108.684 and 93.421 and 101.974 | cell viability relative to control ([8]; conc 300, 72 h): 103.684 and 90.921 and 92.2368 | cell viability relative to control ([8]; conc 1000, 72 h): 95.1316 and 97.1053 and 98.2895 | viability at 72 h ([9]; conc 10, 72 h): 98.7% | viability at 72 h ([9]; conc 300, 72 h): 88% | EC50 ([10]; Homo sapiens, KYSE-70, 72 h, cell line assigned from panel order, read-out: EC50, cell growth inhibition): > 1 µM | cell viability relative to control ([10]; conc 10, 72 h): 101.942 and 101.216 | cell viability relative to control ([10]; conc 30, 72 h): 111.396 and 109.174 and 90.4505 | cell viability relative to control ([10]; conc 100, 72 h): 115.736 and 126.65 and 80.7614 | cell viability relative to control ([10]; conc 300, 72 h): 86.0914 and 84.7716 | cell viability relative to control ([10]; conc 1000, 72 h): 63.3503 and 88.731 and 70.4569 | viability at 72 h ([11]; conc 3, 72 h): 96.9% | viability at 72 h ([11]; conc 10, 72 h): 107% | viability at 72 h ([11]; conc 100, 72 h): 87.8% | viability at 72 h ([11]; conc 1000, 72 h): 79.7% | EC50 ([12]; Homo sapiens, HCT-116, 72 h, cell line assigned from panel order, read-out: EC50, cell growth inhibition): > 1 µM | cell viability relative to control ([12]; conc 3, 72 h): 101.869 and 103.551 | cell viability relative to control ([12]; conc 10, 72 h): 94.2056 and 90 | cell viability relative to control ([12]; conc 30, 72 h): 80.7477 and 101.215 and 108.939 | cell viability relative to control ([12]; conc 100, 72 h): 96.6355 and 107.727 | cell viability relative to control ([12]; conc 300, 72 h): 79.5327 and 97.5701 and 109.546 | cell viability relative to control ([12]; conc 1000, 72 h): 96.8224 and 90.3738
